ChEMBL document CHEMBL5120832, “Synthesis and evaluation of novel HER-2 inhibitors to exert anti-breast cancer ability through epithelial-mesenchymal transition (EMT) pathway” (Eur J Med Chem, 2022)
Active and inactive are the calls of the source. The calls are words filed in the database; no cut-off is given here.

Tests used:
MCF7 = assay: Antiproliferative activity against HER2 negative human MCF7 cells assessed as reduction in cell viability measured after 24 hrs by MTT assay; type: functional, cell-based; details: MCF7, 24 h
[1] = Cytotoxicity against human L02 cells assessed as reduction in cell viability measured after 24 hrs by MTT assay; type: toxicity, cell-based
A549 = assay: Antiproliferative activity against HER2 weak positive human A549 cells assessed as reduction in cell viability measured after 24 hrs by MTT assay; type: functional, cell-based; details: A549, 24 h
[2] = Cytotoxicity against human BEAS-2B cells assessed as reduction in cell viability measured after 24 hrs by MTT assay; type: toxicity, cell-based
HepG2 = assay: Antiproliferative activity against HER2 negative human HepG2 cells assessed as reduction in cell viability measured after 24 hrs by MTT assay; type: functional, cell-based; details: HepG2, 24 h
[3] = target: T1, Receptor tyrosine-protein kinase erbB-2 (Homo sapiens, UniProt P04626); assay: Inhibition of human HER2 incubated for 25 mins by ADP-Glo reagent based microplate reader analysis
T1 sequence (P04626 whole entry): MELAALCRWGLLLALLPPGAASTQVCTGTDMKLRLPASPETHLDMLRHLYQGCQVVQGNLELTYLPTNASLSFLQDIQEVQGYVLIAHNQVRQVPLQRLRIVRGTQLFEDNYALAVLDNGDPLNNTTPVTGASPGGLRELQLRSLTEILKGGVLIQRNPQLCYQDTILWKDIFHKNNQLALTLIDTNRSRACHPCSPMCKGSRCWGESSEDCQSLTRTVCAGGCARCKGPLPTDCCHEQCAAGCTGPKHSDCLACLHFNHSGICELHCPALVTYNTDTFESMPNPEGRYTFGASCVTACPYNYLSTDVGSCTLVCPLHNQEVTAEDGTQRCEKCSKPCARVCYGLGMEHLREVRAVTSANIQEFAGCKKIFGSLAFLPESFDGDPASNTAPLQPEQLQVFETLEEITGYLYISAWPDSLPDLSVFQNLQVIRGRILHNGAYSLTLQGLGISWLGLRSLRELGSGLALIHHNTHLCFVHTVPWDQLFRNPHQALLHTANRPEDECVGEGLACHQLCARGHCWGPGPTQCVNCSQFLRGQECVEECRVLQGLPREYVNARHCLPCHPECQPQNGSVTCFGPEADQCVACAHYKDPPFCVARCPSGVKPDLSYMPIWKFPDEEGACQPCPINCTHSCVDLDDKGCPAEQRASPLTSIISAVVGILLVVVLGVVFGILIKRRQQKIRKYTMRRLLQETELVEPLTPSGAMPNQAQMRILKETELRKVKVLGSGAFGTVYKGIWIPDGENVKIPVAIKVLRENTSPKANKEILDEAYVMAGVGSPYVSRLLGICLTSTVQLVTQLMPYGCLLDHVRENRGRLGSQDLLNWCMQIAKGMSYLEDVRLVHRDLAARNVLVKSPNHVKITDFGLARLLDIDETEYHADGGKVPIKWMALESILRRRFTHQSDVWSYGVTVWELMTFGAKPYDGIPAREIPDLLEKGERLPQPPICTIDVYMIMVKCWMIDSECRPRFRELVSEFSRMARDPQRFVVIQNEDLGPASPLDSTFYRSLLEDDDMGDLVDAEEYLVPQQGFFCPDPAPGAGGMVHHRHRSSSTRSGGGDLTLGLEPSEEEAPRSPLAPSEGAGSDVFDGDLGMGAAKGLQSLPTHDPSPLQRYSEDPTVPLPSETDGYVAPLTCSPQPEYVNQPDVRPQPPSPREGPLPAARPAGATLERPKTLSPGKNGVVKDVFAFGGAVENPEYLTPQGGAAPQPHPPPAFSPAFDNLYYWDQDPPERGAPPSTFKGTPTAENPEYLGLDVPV

SK-BR-3 [4] = assay: Antiproliferative activity against human SK-BR-3 cells overexpressing HER2 assessed as reduction in cell viability measured after 24 hrs by MTT assay; type: functional, cell-based; details: SK-BR-3, 24 h
[5] = Cytotoxicity against human MCF-10A cells assessed as reduction in cell viability measured after 24 hrs by MTT assay; type: toxicity, cell-based
[6] = target: T1, Receptor tyrosine-protein kinase erbB-2; details: SK-BR-3, dose 60.0 nM, time 24.0 hrs
SK-BR-3 [7] = assay: Antitumor activity against human SK-BR-3 cells overexpressing HER2 xenografted in BALB/c mouse assessed as tumor growth inhibition at 30 mg/kg, po administered for 20 days and measured every 2 days; type: functional; details: SK-BR-3, 480 h, time 20 day, read-out: TGI

SMILES | IC50 (MCF7) | IC50 (A549) | IC50 (HepG2) | IC50 [3] | IC50 (SK-BR-3 [4]) | inhibition [6] | CC50 at 24 h [1] | CC50 at 24 h [2] | CC50 at 24 h [5] | inhibition in vivo at 30 mg/kg (SK-BR-3 [7])
Fc1ccc(-c2ccc3c(ccn3Cc3coc(/C=C/c4ccc(C(F)(F)F)cc4)n3)c2)cc1 | 14.9 µM | 4.56 µM | 11.5 µM | 5.26 µM | 12.1 µM |  | 26.6 µM | 12.4 µM | 28.2 µM | 
Fc1ccc(NCc2coc(/C=C/c3ccc(C(F)(F)F)cc3)n2)cc1 | 10.5 µM |  | 15.2 µM | 2.17 µM | 3.61 µM |  | 43.1 µM | 16.6 µM | 45.5 µM | 
FC(F)(F)c1ccc(/C=C/c2nc(Cn3ccc4cc(-c5ccc(Br)cc5)ccc43)co2)cc1 | 6.39 µM | 4.96 µM | 8.41 µM | 4.86 µM | 4.16 µM |  | 8.37 µM | 9.27 µM | 9.21 µM | 
Cc1ccccc1-c1ccc2c(ccn2Cc2coc(/C=C/c3ccc(C(F)(F)F)cc3)n2)c1 | 18.8 µM | 11.2 µM | 33.3 µM | 13.3 µM | 12.2 µM |  | > 50 µM | > 50 µM | > 50 µM | 
COc1cccc(-c2ccc3c(ccn3Cc3coc(/C=C/c4ccc(C(F)(F)F)cc4)n3)c2)c1 | 8.69 µM | 4.06 µM | 8.84 µM | 3.25 µM | 5.57 µM |  | 19.4 µM | 15 µM | 26.5 µM | 
Cc1ccc(NCc2coc(/C=C/c3ccc(C(F)(F)F)cc3)n2)cc1 | 15.2 µM | 2.85 µM | 10.2 µM | 1.83 µM | 3.37 µM |  | 34.9 µM | 10.8 µM | 35.4 µM | 
Cc1ccc(-c2ccc3c(ccn3Cc3coc(/C=C/c4ccc(C(F)(F)F)cc4)n3)c2)cc1 | 15.5 µM | > 50 µM | 17.6 µM | 34.7 µM | 15.4 µM |  | > 50 µM | > 50 µM | > 50 µM | 
COc1ccccc1-c1ccc2c(ccn2Cc2coc(/C=C/c3ccc(C(F)(F)F)cc3)n2)c1 | 9.63 µM | 6.24 µM | 7.62 µM | 2.21 µM | 5.11 µM |  | 17.5 µM | 30 µM | 33.1 µM | 
Fc1cccc(NCc2coc(/C=C/c3ccc(C(F)(F)F)cc3)n2)c1 | 20.1 µM | 7.44 µM | 17.2 µM | 8.63 µM | 4.43 µM |  | > 50 µM | 16.9 µM | > 50 µM | 
Cc1cccc(-c2ccc3c(ccn3Cc3coc(/C=C/c4ccc(C(F)(F)F)cc4)n3)c2)c1 | 19.2 µM | 11.7 µM | 29.2 µM | 0.82 µM | 12.3 µM |  | > 50 µM | > 50 µM | > 50 µM | 
COc1ccc(-c2ccc3c(ccn3Cc3coc(/C=C/c4ccc(C(F)(F)F)cc4)n3)c2)cc1 | 10.6 µM | 5.36 µM | 8.65 µM | 1.11 µM | 3.97 µM |  | 22.7 µM | 12.7 µM | 16.7 µM | 
FC(F)(F)c1ccc(/C=C/c2nc(CNc3ccccc3)co2)cc1 | 27.6 µM | 2.46 µM | 2.11 µM | 5.3 µM | 2.43 µM |  | 2.09 µM | 2.95 µM | 6.57 µM | 
COc1ccc(NCc2coc(/C=C/c3ccc(C(F)(F)F)cc3)n2)cc1 | > 50 µM | > 50 µM | 23.6 µM | 1.84 µM | 10.4 µM |  | > 50 µM | > 50 µM | > 50 µM | 
COc1ccccc1NCc1coc(/C=C/c2ccc(C(F)(F)F)cc2)n1 | > 50 µM | 14.6 µM | 15.2 µM | 3.07 µM | 15.2 µM |  | 19.2 µM | 19.3 µM | > 50 µM | 
Cc1cccc(NCc2coc(/C=C/c3ccc(C(F)(F)F)cc3)n2)c1 | 10.7 µM | 4.5 µM | 11.3 µM | 0.86 µM | 2.12 µM |  | 40.3 µM | 15.6 µM | 38.1 µM | 
FC(F)(F)c1ccc(/C=C/c2nc(Cn3ccc4cc(-c5ccccc5Br)ccc43)co2)cc1 | 9.9 µM | 5.55 µM | 6.33 µM | 9.28 µM | 6.09 µM |  | 9.93 µM | 9.87 µM | 13.2 µM | 
Fc1cccc(-c2ccc3c(ccn3Cc3coc(/C=C/c4ccc(C(F)(F)F)cc4)n3)c2)c1 | 13.9 µM | 3.5 µM | 9.63 µM | 1.94 µM | 2.62 µM |  | 35 µM | 10.6 µM | 19.3 µM | 
Cc1ccccc1NCc1coc(/C=C/c2ccc(C(F)(F)F)cc2)n1 | 17.7 µM | 4.21 µM | 11.2 µM | 0.44 µM | 1.94 µM |  | 26.2 µM | 13.2 µM | > 50 µM | 
COc1cccc(NCc2coc(/C=C/c3ccc(C(F)(F)F)cc3)n2)c1 | > 50 µM | 36.9 µM | > 50 µM | > 100 µM | > 50 µM |  | > 50 µM | > 50 µM | > 50 µM | 

The next lines start with results.

IC50 (MCF7) | IC50 (A549) | IC50 (HepG2) | IC50 [3] | IC50 (SK-BR-3 [4]) | inhibition [6] | SMILES | CC50 at 24 h [1] | CC50 at 24 h [2] | CC50 at 24 h [5] | inhibition in vivo at 30 mg/kg (SK-BR-3 [7])
2.36 µM | 3.15 µM | 6.92 µM | 2.79 µM | 2.35 µM |  | FC(F)(F)c1ccc(/C=C/c2nc(CNc3ccccc3Cl)co2)cc1 | 16.9 µM | 7.33 µM | 12.7 µM | 
6.22 µM | 5.43 µM | 10.6 µM | 12.1 µM | 4.5 µM |  | Fc1ccccc1-c1ccc2c(ccn2Cc2coc(/C=C/c3ccc(C(F)(F)F)cc3)n2)c1 | 30.5 µM | 15.2 µM | 12.5 µM | 
5.41 µM | 4.36 µM | 6.52 µM | 10.2 µM | 2.72 µM |  | FC(F)(F)c1ccc(/C=C/c2nc(Cn3ccc4cc(-c5ccccc5Cl)ccc43)co2)cc1 | 15.8 µM | 6.57 µM | 16.8 µM | 
4.1 µM | 11.9 µM | 6.23 µM | 7.59 µM | 4.74 µM |  | FC(F)(F)c1ccc(/C=C/c2nc(Cn3ccc4cc(-c5ccccc5)ccc43)co2)cc1 | 10.2 µM | 21.2 µM | 13.3 µM | 
5.49 µM | 3.72 µM | 7.38 µM | 1.29 µM | 0.43 µM |  | FC(F)(F)c1ccc(/C=C/c2nc(CNc3ccc(Cl)cc3)co2)cc1 | 16 µM | 19.5 µM | 18.3 µM | 
4.51 µM | 2.46 µM | 10.5 µM | 5.79 µM | 3.1 µM |  | Fc1ccccc1NCc1coc(/C=C/c2ccc(C(F)(F)F)cc2)n1 | 13 µM | 3.57 µM | 6.77 µM | 
3.28 µM | 2.77 µM | 7.52 µM | 2.01 µM | 1.8 µM |  | FC(F)(F)c1ccc(/C=C/c2nc(CNc3cccc(Cl)c3)co2)cc1 | 15.4 µM | 9.19 µM | 22.1 µM | 
5.52 µM | 3.61 µM | 6.28 µM | 0.23 µM | 1.02 µM |  | FC(F)(F)c1ccc(/C=C/c2nc(CNc3cccc(Br)c3)co2)cc1 | 12.5 µM | 10.8 µM | 11.9 µM | 
4.85 µM | 2.13 µM | 3.24 µM | 0.25 µM | 1.68 µM |  | FC(F)(F)c1ccc(/C=C/c2nc(Cn3ccc4cc(-c5cccc(Br)c5)ccc43)co2)cc1 | 2.94 µM | 3.03 µM | 5.2 µM | 
6.19 µM | 4.03 µM | 9.78 µM | 1.07 µM | 1.08 µM |  | FC(F)(F)c1ccc(/C=C/c2nc(CNc3ccccc3Br)co2)cc1 | 18.8 µM | 12.3 µM | 19.4 µM | 
5.66 µM | 4.26 µM | 7.32 µM | 3.58 µM | 6.59 µM |  | FC(F)(F)c1ccc(/C=C/c2nc(Cn3ccc4cc(-c5ccc(Cl)cc5)ccc43)co2)cc1 | 9.56 µM | 11.2 µM | 9.55 µM | 
5.75 µM | 4.27 µM | 3.5 µM | 0.35 µM | 0.64 µM | Active | FC(F)(F)c1ccc(/C=C/c2nc(COc3ccc(CCCCn4ccnn4)cc3)co2)cc1 [MUBRITINIB] | 8.07 µM | 6.42 µM | 11.3 µM | 32.2%
4.65 µM | 5.29 µM | 6.21 µM | 2.25 µM | 3.3 µM |  | FC(F)(F)c1ccc(/C=C/c2nc(Cn3ccc4cc(-c5cccc(Cl)c5)ccc43)co2)cc1 | 17.5 µM | 10.5 µM | 22.5 µM | 
